Measured values from patent US5556744A, “Methods and compositions for diagnosing and treating certain HIV infected patients” (The Trustees of the University of Pennsylvania, priority 1994, dated 1996).

Test system: maternal HIV+ sera (antibodies)
Assay: RIA / ELISA binding of maternal HIV+ sera to gp120 and gp41 peptides (Example 3)
Set-up: species or system human
How it was run: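 Maternal sera, diluted 1:50 and 1:500, were bound overnight at 4°C to peptides immobilized at 10 μg/ml (pH 9.6 carbonate) and blocked with 1% BSA. Read-out was ¹²⁵I-labelled anti-human IgG counts or HRP-TMB OD450. Signal with peptide minus without was expressed relative to seronegative serum.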

[1] = Serum No. 1, Non-Transmission Group
[2] = Serum No. 2, Non-Transmission Group
[3] = Serum No. 3, Non-Transmission Group
[4] = Serum No. 4, Transmission Group
[5] = Serum No. 5, Transmission Group
[6] = Serum No. 6, Non-Transmission Group
[7] = Serum No. 7, Non-Transmission Group
[8] = Serum No. 8, Non-Transmission Group
[9] = Serum No. 9, Non-Transmission Group
[10] = Serum No. 10, Transmission Group
[11] = Serum No. 11, Non-Transmission Group
[12] = Serum No. 12, Non-Transmission Group
[13] = Serum No. 13, Transmission Group
[14] = Serum No. 14, Transmission Group
[15] = Serum No. 15, Transmission Group
[16] = Serum No. 16, Non-Transmission Group
[17] = Serum No. 17, Non-Transmission Group
[18] = Serum No. 18, Non-Transmission Group
[19] = Serum No. 19, Transmission Group
[20] = Serum No. 20, Non-Transmission Group

Row | Sequence | Binding of maternal HIV+ serum to peptide (sera/NHS ratio) [1] | Binding of maternal HIV+ serum to peptide (sera/NHS ratio) [2] | Binding of maternal HIV+ serum to peptide (sera/NHS ratio) [3] | Binding of maternal HIV+ serum to peptide (sera/NHS ratio) [4] | Binding of maternal HIV+ serum to peptide (sera/NHS ratio) [5] | Binding of maternal HIV+ serum to peptide (sera/NHS ratio) [6] | Binding of maternal HIV+ serum to peptide (sera/NHS ratio) [7] | Binding of maternal HIV+ serum to peptide (sera/NHS ratio) [8] | Binding of maternal HIV+ serum to peptide (sera/NHS ratio) [9] | Binding of maternal HIV+ serum to peptide (sera/NHS ratio) [10] | Binding of maternal HIV+ serum to peptide (sera/NHS ratio) [11] | Binding of maternal HIV+ serum to peptide (sera/NHS ratio) [12] | Binding of maternal HIV+ serum to peptide (sera/NHS ratio) [13] | Binding of maternal HIV+ serum to peptide (sera/NHS ratio) [14] | Binding of maternal HIV+ serum to peptide (sera/NHS ratio) [15] | Binding of maternal HIV+ serum to peptide (sera/NHS ratio) [16] | Binding of maternal HIV+ serum to peptide (sera/NHS ratio) [17] | Binding of maternal HIV+ serum to peptide (sera/NHS ratio) [18] | Binding of maternal HIV+ serum to peptide (sera/NHS ratio) [19] | Binding of maternal HIV+ serum to peptide (sera/NHS ratio) [20] | other results
1 | KQFINMWQEVGKAMYAPP [Peptide B138] | + (which value is between 2 to 3) | + (which value is between 2 to 3) | - (specific OD450 or cpm of sera sample binding to peptide divided by the specific OD450 or cpm of NHS sample binding to peptide, which value is less than 2) | + (which value is between 2 to 3) | + (which value is between 2 to 3) | + (which value is between 2 to 3) | ++ (which value is greater than 3) | ++ (which value is greater than 3) | - (specific OD450 or cpm of sera sample binding to peptide divided by the specific OD450 or cpm of NHS sample binding to peptide, which value is less than 2) | - (specific OD450 or cpm of sera sample binding to peptide divided by the specific OD450 or cpm of NHS sample binding to peptide, which value is less than 2) | - (specific OD450 or cpm of sera sample binding to peptide divided by the specific OD450 or cpm of NHS sample binding to peptide, which value is less than 2) | - (specific OD450 or cpm of sera sample binding to peptide divided by the specific OD450 or cpm of NHS sample binding to peptide, which value is less than 2) | - (specific OD450 or cpm of sera sample binding to peptide divided by the specific OD450 or cpm of NHS sample binding to peptide, which value is less than 2) | - (specific OD450 or cpm of sera sample binding to peptide divided by the specific OD450 or cpm of NHS sample binding to peptide, which value is less than 2) | - (specific OD450 or cpm of sera sample binding to peptide divided by the specific OD450 or cpm of NHS sample binding to peptide, which value is less than 2) | - (specific OD450 or cpm of sera sample binding to peptide divided by the specific OD450 or cpm of NHS sample binding to peptide, which value is less than 2) | - (specific OD450 or cpm of sera sample binding to peptide divided by the specific OD450 or cpm of NHS sample binding to peptide, which value is less than 2) | - (specific OD450 or cpm of sera sample binding to peptide divided by the specific OD450 or cpm of NHS sample binding to peptide, which value is less than 2) | - (specific OD450 or cpm of sera sample binding to peptide divided by the specific OD450 or cpm of NHS sample binding to peptide, which value is less than 2) | - (specific OD450 or cpm of sera sample binding to peptide divided by the specific OD450 or cpm of NHS sample binding to peptide, which value is less than 2) | Number of maternal sera binding to peptide (20 maternal sera): Seven; Number of binding maternal sera from the transmission group (vertical transmission group (7 sera)): two
2 | PQEVVLVNVTGENFNM [Peptide 96] | - (specific OD450 or cpm of sera sample binding to peptide divided by the specific OD450 or cpm of NHS sample binding to peptide, which value is less than 2) | - (specific OD450 or cpm of sera sample binding to peptide divided by the specific OD450 or cpm of NHS sample binding to peptide, which value is less than 2) | - (specific OD450 or cpm of sera sample binding to peptide divided by the specific OD450 or cpm of NHS sample binding to peptide, which value is less than 2) | - (specific OD450 or cpm of sera sample binding to peptide divided by the specific OD450 or cpm of NHS sample binding to peptide, which value is less than 2) | - (specific OD450 or cpm of sera sample binding to peptide divided by the specific OD450 or cpm of NHS sample binding to peptide, which value is less than 2) | - (specific OD450 or cpm of sera sample binding to peptide divided by the specific OD450 or cpm of NHS sample binding to peptide, which value is less than 2) | - (specific OD450 or cpm of sera sample binding to peptide divided by the specific OD450 or cpm of NHS sample binding to peptide, which value is less than 2) | - (specific OD450 or cpm of sera sample binding to peptide divided by the specific OD450 or cpm of NHS sample binding to peptide, which value is less than 2) | - (specific OD450 or cpm of sera sample binding to peptide divided by the specific OD450 or cpm of NHS sample binding to peptide, which value is less than 2) | - (specific OD450 or cpm of sera sample binding to peptide divided by the specific OD450 or cpm of NHS sample binding to peptide, which value is less than 2) | - (specific OD450 or cpm of sera sample binding to peptide divided by the specific OD450 or cpm of NHS sample binding to peptide, which value is less than 2) | - (specific OD450 or cpm of sera sample binding to peptide divided by the specific OD450 or cpm of NHS sample binding to peptide, which value is less than 2) | - (specific OD450 or cpm of sera sample binding to peptide divided by the specific OD450 or cpm of NHS sample binding to peptide, which value is less than 2) | - (specific OD450 or cpm of sera sample binding to peptide divided by the specific OD450 or cpm of NHS sample binding to peptide, which value is less than 2) | - (specific OD450 or cpm of sera sample binding to peptide divided by the specific OD450 or cpm of NHS sample binding to peptide, which value is less than 2) | - (specific OD450 or cpm of sera sample binding to peptide divided by the specific OD450 or cpm of NHS sample binding to peptide, which value is less than 2) | - (specific OD450 or cpm of sera sample binding to peptide divided by the specific OD450 or cpm of NHS sample binding to peptide, which value is less than 2) | - (specific OD450 or cpm of sera sample binding to peptide divided by the specific OD450 or cpm of NHS sample binding to peptide, which value is less than 2) | - (specific OD450 or cpm of sera sample binding to peptide divided by the specific OD450 or cpm of NHS sample binding to peptide, which value is less than 2) | - (specific OD450 or cpm of sera sample binding to peptide divided by the specific OD450 or cpm of NHS sample binding to peptide, which value is less than 2) | Binding of maternal sera to peptide (in words) (Example 3): No binding
3 | TRKSIRIQRGPGRAF [Peptide 107] | ++ (which value is greater than 3) | ++ (which value is greater than 3) | ++ (which value is greater than 3) | ++ (which value is greater than 3) | ++ (which value is greater than 3) | ++ (which value is greater than 3) | + (which value is between 2 to 3) | ++ (which value is greater than 3) | ++ (which value is greater than 3) | + (which value is between 2 to 3) | ++ (which value is greater than 3) | ++ (which value is greater than 3) | ++ (which value is greater than 3) | ++ (which value is greater than 3) | - (specific OD450 or cpm of sera sample binding to peptide divided by the specific OD450 or cpm of NHS sample binding to peptide, which value is less than 2) | ++ (which value is greater than 3) | ++ (which value is greater than 3) | ++ (which value is greater than 3) | ++ (which value is greater than 3) | ++ (which value is greater than 3) | Percentage of sera samples demonstrating binding to peptide, non-transmitter (Non-transmitter group, n = 13): 100%; Percentage of sera samples demonstrating binding to peptide, transmitter (Transmitter / transmission group, n = 7): 85.7%; Percent of the maternal serum samples that bound to the peptide (all 20 samples): 95%
